From patent US20250099420A1, “SMALL MOLECULE MODULATORS OF GPR139 COMPLEX” (University of Florida Research Foundation, Incorporated, priority 2022, published 2025)
Read-outs that look alike come from different tables or passages of the source.

Legend:
[1] = system: parental HEK cells; test: HEK parental Agonist Counterscreen Assay (non-transfected cells); format: cell-based; conditions: for Averaged Max % Response (±St. Dev.): activity relative to known control
From the text: The high control for the agonist counterscreen was Forskolin not acetylcholine.

[2] = molecular target: T1, GPR139 (Homo sapiens, UniProt Q6DWJ6); test: GPR139 Agonist titration / agonist counterscreen assay (calcium detection, HEK-GPR139 cells); format: cell-based; design: expressed in transfected cells; host or cells: HEK Aequorin cells, Maxcyte transient transfection; conditions: GPR139 Agonist Activity; for EC50: read-out: EC50; for Averaged Max % Response (±St. Dev.): activity relative to known control
T1 sequence (Q6DWJ6 1-353): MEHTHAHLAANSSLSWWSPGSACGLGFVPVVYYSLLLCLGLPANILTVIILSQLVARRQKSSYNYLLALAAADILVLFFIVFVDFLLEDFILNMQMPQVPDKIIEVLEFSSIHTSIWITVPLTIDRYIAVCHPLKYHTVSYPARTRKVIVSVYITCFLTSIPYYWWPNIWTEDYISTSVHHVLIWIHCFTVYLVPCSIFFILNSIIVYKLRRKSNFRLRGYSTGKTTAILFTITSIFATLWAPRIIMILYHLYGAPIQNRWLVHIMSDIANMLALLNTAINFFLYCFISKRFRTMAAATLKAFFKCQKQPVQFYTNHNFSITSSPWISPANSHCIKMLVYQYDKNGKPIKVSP
Procedure: GPR activity was assessed using a calcium detection assay. […] Negative control samples were treated with DMSO. […] Intracellular calcium was measured using Calcium 5.

[3] = HEK Agonist Activity, parental non-transfected HEK cells
[4] = values printed in E-notation without unit
[5] = Homo sapiens, HEK293, HEK Agonist Activity section of Table 4 (parental HEK counterscreen)
[6] = Homo sapiens, HEK293, HEK Agonist Activity, parental non-transfected HEK cells

Structure (SMILES) | Lipophilic Efficiency (logD) ([1]; HEK Agonist Activity section) | Lipophilic Efficiency (logP) ([1]; HEK Agonist Activity section) | Averaged Max % Response (±St. Dev.) ([1]; HEK Agonist Activity section) [%] | Efficiency Ligand [2] | Hill Slope [2] | Lipophilic Efficiency (logD) [2] | Lipophilic Efficiency (logP) [2] | EC50 ([2]; HEK-GPR139 cells) [nM] | Averaged Max % Response (±St. Dev.) [2] [%] | Lipophilic Efficiency (logD) ([1]; HEK Agonist Activity) | Lipophilic Efficiency (logP) ([1]; HEK Agonist Activity) | Averaged Max % Response (±St. Dev.) ([1]; HEK Agonist Activity) [%] | Lipophilic Efficiency (logD) ([2]; based on logD) | Lipophilic Efficiency (logP) ([2]; based on logP) | Hill Slope ([2]; fitted dose-response curve) | Efficiency Ligand ([2]; ligand efficiency) | EC50 [2, 4] [nM] | EC50 [1, 5] [nM] | EC50 [1, 6] [nM] | other results
Cc1ccc(NC(=O)CSC2=C(C#N)C(c3ccc(F)cc3)CC(=O)N2)c(C)c1 (centres unmarked) [SR-01000484494] | 0.89 | 0.89 | 14.09 ± 3.35 | 0.28 | 0.89 | 1.82 | 1.82 | 1900 | 114.96 ± 19.78 |  |  |  |  |  |  |  |  |  |  | EC50 ([1]; HEK Agonist Activity section of Table 4 (parental HEK counterscreen)): > 16000 nM
COc1cc(-c2nnc(COc3ccc(Cl)cc3C)o2)cc(OC)c1OC [SR-01000504687] |  |  |  |  |  |  |  |  | 92.66 ± 5.93 | 1.65 | 1.65 | −3.10 ± 6.59 | 4.45 | 4.45 | 0.62 | 0.40 | 19.4 |  |  | EC50 [1, 3]: > 12200 nM
Cc1cccc(C(=O)NNC(=O)CCc2ccccc2)c1 [SR-01000513008] | 1.74 | 1.74 | −5.44 ± 7.74 | 0.42 | 0.93 | 3.32 | 3.32 | 454 | 109.30 ± 27.76 |  |  |  |  |  |  |  |  | > 17100 |  | 
CC(Oc1ccc(Cl)cc1Cl)C(=O)NNC(=O)c1ccc(F)cc1 (centres unmarked) [SR-01000520452] | 1.26 | 1.13 | 1.29 ± 6.31 |  |  |  |  |  | 113.17 ± 28.03 |  |  |  | 3.08 | 2.96 | 0.85 | 0.39 | 235 | > 15700 |  | 
CC(Oc1ccc(O)cc1Cl)C(=O)NNC(=O)c1cccc(F)c1 (centres unmarked) [SR-01000520454] |  |  |  |  |  |  |  |  | 113.77 ± 7.21 | 1.31 | 1.19 | 15.83 ± 2.96 | 5.60 | 5.48 |  | 0.53 | > 0.703 |  | > 13800 | 
Cn1cnnc1SCc1ccc(F)c2ccccc12 [SR-01000524029] |  |  |  |  |  |  |  |  | 98.34 ± 6.18 | 1.61 | 1.61 | 9.45 ± 2.06 | 4.61 | 4.61 | 0.92 | 0.57 | 16.2 |  |  | EC50 [1, 3]: > 16000 nM
CC1=CN=C(CCc2ccc(F)c3ccccc23)C1 [SR-01000525232] |  |  |  |  |  |  |  |  | 96.70 ± 23.19 | 1.09 | 1.09 | −17.88 ± 3.50 | 4.05 | 4.05 | 0.19 | 0.57 |  |  | > 17400 | 
COc1ccc(SCC(=O)NNC(=S)Nc2ccccc2)cc1 [SR-01000526835] | 1.85 | 1.85 | 7.64 ± 8.84 | 0.37 | 1.15 | 3.01 | 3.01 | 955 | 81.65 ± 6.38 |  |  |  |  |  |  |  |  | > 13900 |  | 
O=C(CCc1nc2ccccc2n1-c1ccccc1)NCCc1ccccc1 [SR-01000535824] |  |  |  |  |  |  |  |  | 136.02 ± 19.68 | −0.133 | −0.133 | 34.71 ± 16.19 | 2.73 | 2.73 |  | 0.39 |  |  | > 12100 | 
